This note sets out measurements from patent publication US7642261B2, “Use of 1-[4-(5-cyanoindol-3-yl)butyl]-4-(2-carbamoyl-benzofuran-5-yl)-piperazine and its physiologically acceptable salts” (Merck Patent GmbH, priority 2002, dated 2010).

Each structure is given as a SMILES string.

The assay concerns mice. Kind of assay: Marble Burying Test (model for OCSD including OCD). It is filed as in vivo. The note with it: dose equieffective to 3 mg/kg of the hydrochloride (92% inhibition). As for the experimental part:
A typical model for OCSD including OCD is the Marble Burying Test according to Y. Ichimaru, T. Egawa, A. Sawa, Jpn. J. Pharmacol. 1995, 68: 65-70.
The apparatus consists of an open cubic box with 25 clean glass marbles evenly spaced on sawdust. Individual mice are placed in the test box, and the number of glass marbles left uncovered after 20 minutes are counted. 1-[4-(5-cyanoindol-3-yl)butyl]-4-(2-carbamoyl-benzofuran-5-yl)-piperazine or one of its physiologically acceptable salts, in particular 1-[4-(5-cyanoindol-3-yl)butyl]-4-(2-carbamoyl-benzofuran-5-yl)-piperazine hydrochloride, following subcutaneous application inhibits mable burying in mice dose-dependently. For example, a dose of 3 mg/kg of 1-[4-(5-cyanoindol-3-yl)butyl]-4-(2-carbamoyl-benzofuran-5-yl)-piperazine hydrochloride nearly completely (92%) inhibits marble burying; equieffective doses of conventional serotonin reuptake inhibitors are e.g. 20 mg/kg for fluvoxamine or 17 mg/kg for fluoxetine and an equieffective dose of the 5-HT1A agonist ipsapirone is 10 mg/kg.
Take `COCCCC/C(=N\OCCN)c1ccc(C(F)(F)F)cc1` [fluvoxamine]: the “equieffective dose for inhibition of marble burying” value (“equieffective dose for inhibition” for short) worked out at 20 mg/kg.

As for `O=C1c2ccccc2S(=O)(=O)N1CCCCN1CCN(c2ncccn2)CC1` [ipsapirone], the “equieffective dose for inhibition” value is 10 mg/kg. `CNCCC(Oc1ccc(C(F)(F)F)cc1)c1ccccc1` (stereo not drawn) [fluoxetine]: the “equieffective dose for inhibition” value was 17 mg/kg.
